Legend:
eosinophil = experiment: Eosinophilia-Inhibitory Activity (Sephadex G-200 induced, bronchovesicular washing); type: in vivo; conditions: Rattus norvegicus, ip, 168 h, rats, 30 mg/kg intraperitoneally 10 minutes prior to each Sephadex administration (day 0, 2, 5), eosinophils at 7th day
Experimental: Rats weighing 250°-350 g were used (5 per group). The test method was a partial modification of the method reported by B. A. Spicer et al (Br. J. Pharmacol (1990), 101, 821). Sephadex G-200 having a particle size of 40°-120 micron was suspended in isotonic saline at 0.5 mg/ml and boiled for 5 hours on the administration day to allow swelling. The suspension was administered to the rats from the tail vein by 1 ml at day 0, day 2 and day 5. At the 7th day from the initiation of the administration, the rats were anesthetized with 25% urethane (5 ml/kg) and fixed at a dorsal position. A cut down tube was inserted into trachea and applied with a three-way cock at its end. A 5 ml plastic syringe was set on one end of the three-way cock, a 5 ml plastic syringe containing 6 units/ml heparin-PBS (37° C.) was set on the other end and the liquid was injected. Using the empty 5 ml plastic syringe, the liquid was inserted or sucked out three times. This set of operations were repeated three times and the liquid obtained was preserved on ice as a bronchovesicular washing (ca 12 ml). The obtained washing was centrifuged [1000 rpm (150 g)×5 min, 4° C.] and the supernatant thereof was removed by decantation. The residue was re-suspended in 500 μl of RPMI-1640 medium. The total leukocytes in the suspension was counted by Colter counter (Sysmex, MICROCELLCOUNTER CC-120). Hinkelmann's Solution (900 μl), which is an eosinophil count reagent, was added to 100 μl of the re-suspension for staining (1:9), and the proportion of eosinophil count relative to the leukocyte count in one microscopic field was determined using an optical microscope (NIKON, BIOPHOT Type 104). The drug (test compound) was intraperitoneally administered in a dose of 30 mg/kg 10 minutes prior to the respective administration of Sephadex. The control group was administered with an isotonic saline containing 1% Tween 80 and 1% dimethyl sulfoxide instead of the drug.
Eosinophilia-inhibitory activity was calculated from the following formula.

T lymphocytes = experiment: Inhibitory action on T lymphocyte activation stimulated by concanavalin A ([3H]thymidine uptake); type: cell-based; conditions: mouse thymus T lymphocytes, 3 μg/ml concanavalin A, test drug 10 μM, read-out: growth-inhibitory activity, minus percentage figures relative to the control group (thymidine uptake)
Experimental: Inhibitory action on T lymphocyte activation stimulated by concanavalin A
The test was performed according to the method of Mishell, B. B. et al ["Cell Proliferation" in Selected Methods in Cellular Immunology, V, XXiX, W. H. Freeman Co., San Francisco, Calif. pp. 153-160, 1980].
T lymphocytes were isolated from mouse thymus by a conventional method and suspended in DMEM. The cells (5×10^6 cells/ml) were incubated at 37° C. for 12 hours in the presence of 3 μg/ml of concanavalin A. The test drug was added at 10 μM under these incubation conditions. After 12 hours of incubation, 2 μCi [3H]thymidine was added to each well and the well was incubated for 48 hours. After the incubation, the thymidine uptake was determined by a scintillation counter. The growth-inhibitory activity is shown in minus percentage figures relative to the figure of the control group.

Row | Compound | inhibition in vivo at 30 mg/kg (eosinophil) [%] | inhibition at 10 µM (T lymphocytes) [%]
1 | Cn1cnc2nc(-c3ccc(Br)cc3)nn2c1=S [Compound R, 2-(4-bromophenyl)-6-methyl-1,2,4-triazolo[1,5-a]-1,3,5-triazine-7(6H)-thione] | 88 | -58
2 | CNC(=S)n1nc(N)nc1N [Compound B, 3,5-diamino-1-[methylamino(thiocarbonyl)]-1H-1,2,4-triazole] | 53 | –
3 | CNC(=S)n1nc(-c2ccc(Br)cc2)nc1N [Compound K, 5-amino-3-(4-bromophenyl)-1-[methylamino(thiocarbonyl)]-1H-1,2,4-triazole] | 90 | -35
4 | CNC(=S)n1nc(-c2ccc(OC)cc2)nc1N [Compound E, 5-amino-3-(4-methoxyphenyl)-1-[methylamino(thiocarbonyl)]-1H-1,2,4-triazole] | 70 | –
5 | CNC(=S)n1nc(-c2ccc(Cl)cc2OC)nc1N [Compound P, 5-amino-3-(4-chloro-2-methoxyphenyl)-1-[methylamino(thiocarbonyl)]-1H-1,2,4-triazole] | 85 | –
6 | Cn1cnc2nc(-c3ccc(Cl)cc3Cl)nn2c1=S [Compound U, 2-(2,4-dichlorophenyl)-6-methyl-1,2,4-triazolo[1,5-a]-1,3,5-triazine-7(6H)-thione] | 85 | -22
7 | CNC(=S)n1nc(-c2cccc(Cl)c2)nc1N [Compound I, 5-amino-3-(3-chlorophenyl)-1-[methylamino(thiocarbonyl)]-1H-1,2,4-triazole] | 70 | –
8 | Cn1cnc2nc(-c3ccc(-c4ccccc4)cc3)nn2c1=S [Compound T, 6-methyl-2-(4-phenylphenyl)-1,2,4-triazolo[1,5-a]-1,3,5-triazine-7(6H)-thione] | 80 | –
9 | Cn1cnc2nc(-c3ccc(Cl)cc3)nn2c1=S [Compound H, 2-(4-chlorophenyl)-6-methyl-1,2,4-triazolo[1,5-a]-1,3,5-triazine-7(6H)-thione] | 83 | -60
10 | Cn1cnc2ncnn2c1=S [Compound F, 6-methyl-1,2,4-triazolo[1,5-a]-1,3,5-triazine-7(6H)-thione] | 58 | –
11 | CNC(=S)n1nc(-c2ccc(F)cc2)nc1N [Compound J, 5-amino-3-(4-fluorophenyl)-1-[methylamino(thiocarbonyl)]-1H-1,2,4-triazole] | 80 | –
12 | Cn1cnc2nc(-c3ccc(C(F)(F)F)cc3)nn2c1=S [Compound S, 6-methyl-2-(4-trifluoromethylphenyl)-1,2,4-triazolo[1,5-a]-1,3,5-triazine-7(6H)-thione] | 89 | -36
13 | CNC(=S)n1nc(-c2ccc(C#N)cc2)nc1N [Compound C, 5-amino-3-(4-cyanophenyl)-1-[methylamino(thiocarbonyl)]-1H-1,2,4-triazole] | 87 | –
14 | CNC(=S)n1nc(-c2ccc(-c3ccccc3)cc2)nc1N [Compound M, 5-amino-3-(4-phenylphenyl)-1-[methylamino(thiocarbonyl)]-1H-1,2,4-triazole] | 85 | –
15 | CNC(=S)n1nc(-c2ccc(Cl)cc2)nc1N [Compound D, 5-amino-3-(4-chlorophenyl)-1-[methylamino(thiocarbonyl)]-1H-1,2,4-triazole] | 87 | -52
16 | Cn1cnc2nc(-c3ccc(Cl)c(Cl)c3)nn2c1=S [Compound V, 2-(3,4-dichlorophenyl)-6-methyl-1,2,4-triazolo[1,5-a]-1,3,5-triazine-7(6H)-thione] | 87 | -40
17 | CNC(=S)n1nc(-c2ccc(Cl)c(Cl)c2)nc1N [Compound O, 5-amino-3-(3,4-dichlorophenyl)-1-[methylamino(thiocarbonyl)]-1H-1,2,4-triazole] | 88 | –
18 | Cn1cnc2nc(-c3ccc(C#N)cc3)nn2c1=S [Compound G, 2-(4-cyanophenyl)-6-methyl-1,2,4-triazolo[1,5-a]-1,3,5-triazine-7(6H)-thione] | 79 | –
19 | CNC(=S)n1nc(-c2ccc(Cl)cc2Cl)nc1N [Compound N, 5-amino-3-(2,4-dichlorophenyl)-1-[methylamino(thiocarbonyl)]-1H-1,2,4-triazole] | 90 | –
20 | CNC(=S)n1nc(-c2ccc(C(F)(F)F)cc2)nc1N [Compound L, 5-amino-1-[methylamino(thiocarbonyl)]-3-(4-trifluoromethylphenyl)-1H-1,2,4-triazole] | 88 | -37
21 | CNC(=S)n1ncnc1N [Compound A, 5-amino-1-[methylamino(thiocarbonyl)]-1H-1,2,4-triazole] | 88 | –
22 | Cn1cnc2nc(-c3ccc(F)cc3)nn2c1=S [Compound Q, 2-(4-fluorophenyl)-6-methyl-1,2,4-triazolo[1,5-a]-1,3,5-triazine-7(6H)-thione] | 82 | –

— patent US5750545A, “Triazole derivative and pharmaceutical use thereof” (The Green Cross Corporation, priority 1993, dated 1998)
